# Results published in ChEMBL document CHEMBL5120838, “Synthesis and biological evaluation of geniposide derivatives as inhibitors of hyperuricemia, inflammatory and fibrosis” (Eur J Med Chem, 2022).
# Calls of active or inactive are those of the source. The rule behind the calls is not given here.
# What was measured:
# Mus musculus [1] = assay: Anti-hyperuricemic activity against adenine and potassium oxonate-induced hyperuricemia Kunming mouse model assessed as reduction in serum creatinine level at 20 mg/kg, po administered via gavage once daily for 2 weeks (reference value: 87.62 +/- 0.67 uM); type: functional
# Mus musculus [2] = species on record: Mus musculus; conditions: Kunming, dose 20.0 mg/kg, route po, time 2.0 weeks
# Description: In vivo inhibition of XOD in adenine and potassium oxonate-induced hyperuricemia Kunming mouse model assessed as reduction in XOD activity in liver at 20 mg/kg, po administered via gavage once daily for 2 weeks
# Mus musculus [3] = assay: Anti-hyperuricemic activity against adenine and potassium oxonate-induced hyperuricemia Kunming mouse model assessed as reduction in creatinine level at 20 mg/kg, po administered via gavage once daily for 4 weeks (reference value: 76.87 +/- 0.67 uM); type: functional
# Mus musculus [4] = assay: Anti-hyperuricemic activity against adenine and potassium oxonate-induced hyperuricemia Kunming mouse model assessed as blood urea nitrogen level at 20 mg/kg, po administered via gavage once daily for 4 weeks (reference value: 15.25 +/- 1.21 mM); type: functional
# Mus musculus [5] = assay: Anti-hyperuricemic activity against adenine and potassium oxonate-induced hyperuricemia Kunming mouse model assessed as blood urea nitrogen level at 20 mg/kg, po administered via gavage once daily for 2 weeks (reference value: 9.88 +/- 1.21 mM); type: functional
# Mus musculus [6] = assay: Renal protective activity against adenine and potassium oxonate-induced hyperuricemia Kunming mouse model assessed as reduction in urate accumulation in kidney at 20 mg/kg, po administered via gavage for 2 weeks by polarization microscopic analysis; type: functional, organism-based
# Mus musculus [7] = assay: Anti-hyperuricemic activity against adenine and potassium oxonate-induced hyperuricemia Kunming mouse model assessed as reduction in serum uric acid level at 20 mg/kg, po administered via gavage once daily for 4 weeks (reference value: 356.15 +/- 3.31 uM); type: functional
# Mus musculus [8] = assay: Anti-hyperuricemic activity against adenine and potassium oxonate-induced hyperuricemia Kunming mouse model assessed as reduction in serum uric acid level at 20 mg/kg, po administered via gavage once daily for 2 weeks (reference value: 318.16 +/- 3.31 uM); type: functional
# Mus musculus [9] = assay: (§1) Nephroprotective activity against adenine and potassium oxonate-induced hyperuricemia Kunming mouse model assessed as appearance of clear tubular structures at 20 mg/kg, po administered via gavage and measured after 21 days by hematoxylin-eosin and Masson trichrome staining based optical microscopic analysis; type: functional, organism-based; conditions: time 21.0 day
# [10] = molecular target: Xanthine dehydrogenase/oxidase (Bos taurus, UniProt P80457); assay: Inhibition of bovine XOD assessed as inhibition of uric acid formation using xanthine as substrate preincubated with enzyme for 5 mins followed by substrate addition and measured for 30 mins by microplate reader analysis
# Sequence of Xanthine dehydrogenase/oxidase (P80457 whole entry): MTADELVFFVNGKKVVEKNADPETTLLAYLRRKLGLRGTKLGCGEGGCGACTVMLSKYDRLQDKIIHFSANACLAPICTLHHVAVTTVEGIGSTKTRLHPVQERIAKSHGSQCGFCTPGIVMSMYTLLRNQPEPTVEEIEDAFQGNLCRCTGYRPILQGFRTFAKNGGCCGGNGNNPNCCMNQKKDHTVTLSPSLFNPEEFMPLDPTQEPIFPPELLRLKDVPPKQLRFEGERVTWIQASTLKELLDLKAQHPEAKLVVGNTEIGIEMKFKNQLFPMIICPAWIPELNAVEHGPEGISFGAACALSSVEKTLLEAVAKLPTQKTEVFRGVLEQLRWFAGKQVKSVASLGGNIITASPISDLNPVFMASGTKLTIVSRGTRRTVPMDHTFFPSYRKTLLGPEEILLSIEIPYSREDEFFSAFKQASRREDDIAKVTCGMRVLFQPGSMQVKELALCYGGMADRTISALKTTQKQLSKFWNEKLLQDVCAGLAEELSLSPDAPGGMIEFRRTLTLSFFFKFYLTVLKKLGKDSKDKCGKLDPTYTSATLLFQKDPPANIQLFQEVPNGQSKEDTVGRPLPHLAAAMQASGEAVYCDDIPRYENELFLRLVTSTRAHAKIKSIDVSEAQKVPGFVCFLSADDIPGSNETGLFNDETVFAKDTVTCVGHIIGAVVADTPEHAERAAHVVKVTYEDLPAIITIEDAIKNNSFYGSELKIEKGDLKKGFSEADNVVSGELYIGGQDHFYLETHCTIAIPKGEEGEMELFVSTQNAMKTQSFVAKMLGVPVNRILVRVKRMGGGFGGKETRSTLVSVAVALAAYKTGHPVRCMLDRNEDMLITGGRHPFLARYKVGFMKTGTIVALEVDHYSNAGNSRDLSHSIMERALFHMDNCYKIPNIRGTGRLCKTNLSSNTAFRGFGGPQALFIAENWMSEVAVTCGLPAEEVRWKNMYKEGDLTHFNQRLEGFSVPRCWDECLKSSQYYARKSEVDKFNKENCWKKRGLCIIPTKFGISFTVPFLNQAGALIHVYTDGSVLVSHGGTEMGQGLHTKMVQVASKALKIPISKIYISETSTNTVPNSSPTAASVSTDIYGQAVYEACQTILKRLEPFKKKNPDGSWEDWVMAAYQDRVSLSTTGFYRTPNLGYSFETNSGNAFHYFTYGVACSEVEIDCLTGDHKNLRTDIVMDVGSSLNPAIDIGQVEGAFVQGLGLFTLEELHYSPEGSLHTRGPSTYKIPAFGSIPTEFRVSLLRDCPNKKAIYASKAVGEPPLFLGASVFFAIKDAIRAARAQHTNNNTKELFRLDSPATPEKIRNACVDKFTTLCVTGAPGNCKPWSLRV
# Mus musculus [11] = assay: as §1, with “reduction in neutrophils infiltrations” for “appearance of clear tubular structures”; type: functional, organism-based; conditions: time 21.0 day
# Mus musculus [12] = assay: as §1, with “reduction in cytoplasmic vacuolation” for “appearance”, “renal” for “clear”, “epithelial cells” for “structures”; type: functional, organism-based; conditions: time 21.0 day
# Mus musculus [13] = assay: as §1, with “reduction in connective tissue hyperplasia” for “appearance of clear tubular structures”; type: functional, organism-based; conditions: time 21.0 day
# Mus musculus [14] = assay: as §1, with “reduction in renal tubule dilation” for “appearance of clear tubular structures”; type: functional, organism-based; conditions: time 21.0 day
# Mus musculus [15] = assay: as §1, with “reduction in tubular-interstitial lesion development” for “appearance of clear tubular structures”; type: functional, organism-based; conditions: time 21.0 day
IC50 [10] [nM],Structure (SMILES),Activity (Mus musculus [1]) [µM],inhibition (Mus musculus [2]),Activity (Mus musculus [3]) [µM],Activity (Mus musculus [4]) [mM],Activity (Mus musculus [5]) [mM],Activity (Mus musculus [6]),Activity (Mus musculus [7]) [µM],Activity (Mus musculus [8]) [µM],Activity (Mus musculus [9]),Activity (Mus musculus [11]),Activity (Mus musculus [12]),Activity (Mus musculus [13]),Activity (Mus musculus [14]),Activity (Mus musculus [15])
–,Oc1ncnc2[nH]ncc12 [ALLOPURINOL],63.31,Active,47.26,12.58,6.3,Active,193.68,233.62,–,–,–,–,–,–
1860,CC(=O)OCC1=CC[C@@H]2C(C(=O)Nc3ccc(C#N)cc3)=CO[C@@H](O[C@@H]3O[C@H](COC(C)=O)[C@@H](OC(C)=O)[C@H](OC(C)=O)[C@H]3OC(C)=O)[C@H]12,89.09,–,–,–,7.29,–,–,244.57,Active,Active,Active,Active,Active,Active
